Entries after “also recorded” stand apart in the source; their conditions may differ. Read-outs that look alike come from different tables or passages of the source.
Legend:
[1] = system: iPS cell-derived platelets; assay: Function-maintaining effect on iPS cell-derived platelets (flow cytometry of CD41a/CD42a/CD42b); type: cell-based, human
Experimental: Human iPS cells (hiPS cells), an iPS cell line (TkDA3-4) established at the University of Tokyo by introducing Oct4, Klf4, Sox2, and c-Myc into human-derived skin cells were cultured on inactivated mouse fibroblasts by treating with 10 μg/mL MitomycinC (manufactured by Wako Pure Chemical Industries Ltd.) in a medium mixture of Dulbecco's modified Eagle's medium and Ham's F-12 medium (manufactured by Sigma-Aldrich Co.) (mixing ratio 1:1) supplemented with 0.1 mM non-essential amino acid (manufactured by Invitrogen Corp.), PSG (100 U/mL penicillin, 100 U/mL streptomycin, and 2 mM L-glutamine) (manufactured by Invitrogen Corp.), 20% knockout serum replacement additive (KSR, manufactured by Invitrogen Corp.), 0.1 mM 2-mercaptoethanol (manufactured by Invitrogen Corp.), and 5 ng/ml basic fibroblast growth factor (bFGF, manufactured by Wako Pure Chemical Industries Ltd.). The cells were subcultured every 3 days, and those cells maintaining an undifferentiated state were used.
In addition, mouse embryo-derived fibroblasts, a C3H10T½ cell line (hereinafter also referred to as “10T½ cells”), purchased from RIKEN BioResource Center were cultured in basal medium Eagle (BME, manufactured by Invitrogen Corp.) supplemented with 10% fetal bovine serum (FBS) and PSG (100 U/mL penicillin, 100 U/mL streptomycin, and 2 mM L-glutamine) (manufactured by Invitrogen Corp.). Then, the 10T½ cells, which had been deactivated in advance by treating with MitomycinC, were seeded so as to give a cell count of 8×10^6/10-cm dish for use as feeder cells. […]
Next, the sac structures were detached from the dish, split open, passed through a 40-μm cell strainer (manufactured by BD), and then centrifuged at 1,500 rpm for 8 minutes to collect hematopoietic progenitor cells. […] Then, the number of cells was counted. […]

[2] = system: human peripheral blood-derived platelets; assay: Function-maintaining effect on human peripheral blood-derived platelets (CCCP-enhanced GPIbα shedding); type: cell-based; conditions: 0.1 to 100 μM, with 100 μM of CCCP, 37° C. for 24 hours; listed as S-108470
Experimental: First, ACD was added in a ratio of 1/10 to human peripheral blood obtained by collecting blood, and centrifuged at 900 rpm for 10 minutes without a break. The supernatant obtained by the centrifugation was further centrifuged at 1,500 rpm for 10 minutes without a break, and then the supernatant was removed. The obtained precipitate was suspended in a Tyrode-HEPES buffer (not containing calcium). The number of platelets in the suspension was counted, and the platelet-containing suspension (Washed Platelet) was adjusted to have a fixed number (about 5×10^7) of platelets in 200 μL of the Tyrode-HEPES buffer (not containing calcium). Next, as described in Protocol 2 shown in FIG. 1, one of either S-108470 (0.1 to 100 μM), TACE inhibitor S (50 μM), or DMSO was added together with 100 μM of CCCP (carbonyl cyanide m-chlorophenyl hydrazone) to the washed platelets. After incubation at 37° C. for 24 hours, the number of CD42b (GPIbα) (+) cells in the CD41a (+) platelets was measured by flow cytometry. Note that, it is known that addition of CCCP enhances GPIbα shedding on the surface of platelets (see Bergmeier et al., Blood, 2003, vol. 102, pp. 4229-4235).

[3] = molecular target: T1, TACE (ADAM17) (Homo sapiens, UniProt P78536); assay: TACE (ADAM17) inhibition test; type: biochemical; conditions: fluorescent synthetic substrate, 37° C. for 1.5 hours
T1 construct: made in house; host or cells: mammalian cells or insect cells
T1 sequence (P78536 215-824): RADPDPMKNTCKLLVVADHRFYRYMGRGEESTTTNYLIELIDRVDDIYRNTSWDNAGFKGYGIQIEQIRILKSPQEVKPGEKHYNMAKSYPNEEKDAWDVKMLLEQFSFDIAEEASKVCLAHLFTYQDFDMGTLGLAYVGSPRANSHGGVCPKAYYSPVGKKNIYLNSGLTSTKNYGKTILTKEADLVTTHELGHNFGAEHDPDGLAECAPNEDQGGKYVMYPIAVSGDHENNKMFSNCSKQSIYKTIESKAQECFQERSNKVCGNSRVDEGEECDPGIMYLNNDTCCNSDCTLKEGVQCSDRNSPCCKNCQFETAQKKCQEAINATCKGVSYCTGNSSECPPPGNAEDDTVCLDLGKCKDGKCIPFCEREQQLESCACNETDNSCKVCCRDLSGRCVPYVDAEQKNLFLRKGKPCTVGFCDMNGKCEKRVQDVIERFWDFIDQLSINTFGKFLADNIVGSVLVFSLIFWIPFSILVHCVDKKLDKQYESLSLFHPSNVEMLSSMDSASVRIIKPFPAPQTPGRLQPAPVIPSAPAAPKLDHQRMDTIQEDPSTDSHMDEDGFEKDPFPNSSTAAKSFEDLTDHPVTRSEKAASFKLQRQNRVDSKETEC
In short: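 Recombinant human TACE (mammalian or insect cell expressed) cleaves Nma-LAQAVRSSK(Dnp)-D-Arg-NH2 quenched substrate, 1.5 h at 37 °C. Fluorescence read at Ex 355/Em 460 nm; IC50 from inhibition vs no-compound control, binned A (<100 nM) or B (≥100 nM).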

`Cc1cccn(CC2(c3ccc(F)c(F)c3)NC(=O)NC2=O)c1=O` (single isomer, unassigned; (+)) [(+)-I-10, (+)-5-(3,4-difluorophenyl)-5-[(3-methyl-2-oxopyridin-1(2H)-yl)methyl]imidazolidine-2,4-dione] was tested, and the “number of obtained CD41a (+) CD42a (+) platelets compared with the medium control group” value ([1]; 10 and 30 μM, treated for 9 to 10 days) was “slightly larger”, the “percentage of CD41a (+) CD42a (+) CD42b (+) platelets compared with the medium control group” value ([1]; 10 and 30 μM, treated for 9 to 10 days, listed as S-108470) was “significant increase; also recorded: increased the percentage of CD42b (+) cells” and the “cytotoxicity / impact on platelet differentiation” value ([1]; culture system using iPS cells) was “without exhibiting cytotoxicity or having any impact on platelet differentiation”. For the same molecule, the “inhibition of GPIbα shedding (CD42b (GPIbα) (+) cells in the CD41a (+) platelets)” value [2] was “inhibits GPIbα shedding in a concentration-dependent manner; also recorded: suppressed in a concentration-dependent manner”, the IC50 ([3]; read-out: TACE IC50) was < 0.1 µM and the IC50 ([3]; read-out: TACE inhibitory action, IC50 value) was < 0.1 µM.
For `Cc1cccn(CC2(c3ccc(OC4CCCCC4)cc3)NC(=O)NC2=O)c1=O` (racemic) [Compound I-37, 5-[4-(cyclohexyloxy)phenyl]-5-[(3-methyl-2-oxopyridin-1(2H)-yl)methyl]imidazolidine-2,4-dione], the IC50 ([3]; read-out: TACE IC50) was < 0.1 µM.
In the case of `Cc1cccn(CC2(c3ccc(Oc4cccc(F)c4)c(F)c3)NC(=O)NC2=O)c1=O` (racemic) [Compound I-112], the IC50 ([3]; read-out: TACE IC50) is reported as < 0.1 µM.
In the case of `Cc1cccn(CC2(c3ccc(F)c(F)c3)NC(=O)NC2=O)c1=O` (racemic) [Compound I-10, 5-(3,4-difluorophenyl)-5-[(3-methyl-2-oxopyridin-1(2H)-yl)methyl]imidazolidine-2,4-dione], the IC50 ([3]; read-out: TACE IC50) is reported as < 0.1 µM.
For `Cc1cccn(CC2(c3ccc(C(F)(F)F)cc3)NC(=O)NC2=O)c1=O` (racemic) [Compound I-89], the IC50 ([3]; read-out: TACE IC50) was < 0.1 µM.
`O=C1NC(=O)C(Cn2cccc(F)c2=O)(c2ccc(F)c(F)c2)N1` (racemic) [Compound I-145] was tested, and the IC50 ([3]; read-out: TACE IC50) was < 0.1 µM.
In the case of `Cc1cccn(CC2(c3ccc(C#Cc4ccccc4)cc3)NC(=O)NC2=O)c1=O` (racemic) [Compound I-106], the IC50 ([3]; read-out: TACE IC50) is reported as < 0.1 µM.
For `Cc1cccn(CC2(c3ccc(Sc4ccccc4)cc3)NC(=O)NC2=O)c1=O` (racemic) [Compound I-102], the IC50 ([3]; read-out: TACE IC50) was < 0.1 µM.
`Cc1cccn(CC2(c3ccc(Cl)c(Cl)c3)NC(=O)NC2=O)c1=O` (racemic) [Compound I-125] was tested, and the IC50 ([3]; read-out: TACE IC50) was < 0.1 µM.
`O=C1NC(=O)C(Cn2ccccc2=O)(c2cc(F)c(F)c(F)c2)N1` (racemic) [Compound I-157] was tested, and the IC50 ([3]; read-out: TACE IC50) was < 0.1 µM.

From patent US20160168540A1, “COMPOSITION FOR MAINTAINING PLATELET FUNCTION” (KYOTO UNIVERSITY, priority 2013, published 2016)
